Data reported in patent publication EP0527889B1, “QUINOLIZINONE TYPE COMPOUNDS” (priority 1990, dated 1991).
Converted amounts (≈) assume the structure as drawn. Structures can show the parent of a compound that is named as a salt.

What was measured:
Test in all cases: In vitro antibacterial activity, MIC by agar dilution
Format in all cases: cell-based
Settings in all cases: BHI agar, 35-37°C, 20-24 hours, unit assumed
[1] = test system: Streptococcus bovis A5169
Protocol: (§1) Each plate was inoculated with 1:100 (or 1:10 for slow growing strains, primarily Micrococcus and Streptococcus) dilutions of up to 32 different microorganisms, using a Steers replicator block calibrated to deliver approximately 10^4 colony forming units (CFUs). The inoculated plates were incubated at from about 35°C to about 37°C for approximately 20-24 hours. In addition, a control plate using BHI agar containing no test compound was prepared and incubated at the beginning and at the end of each test. Ciprofloxacin was used as the control antibiotic.
(§2) The MIC was defined as the lowest concentration of test compound yielding no growth (a slight haze or sparsely isolated colonies at the inoculum spot) as compared to the growth control containing no test compound.

[2] = test system: Providencia stuartii CMX 640
Protocol: as §1, §2

[3] = test system: Pseudomonas aeruginosa A5007
Protocol: as §1, §2

[4] = test system: Pseudomonas aeruginosa 2862
Protocol: as §1, §2

[5] = test system: Micrococcus luteus ATCC 9341
Protocol: as §1, §2

[6] = test system: Staphylococcus epidermidis 3519
Protocol: as §1, §2

Escherichia coli DC-2 = test system: Escherichia coli DC-2
Protocol: as §1, §2

[7] = test system: Staphylococcus aureus 642A
Protocol: as §1, §2

[8] = test system: Acinetobacter calcoaceticus CMX 669
Protocol: as §1, §2

[9] = test system: Streptococcus pyrogenes 2548 INDUC
Protocol: as §1, §2

[10] = test system: Staphylococcus aureus NCTC 10649
Protocol: as §1, §2

[11] = test system: Pseudomonas aeruginosa K799/WT
Protocol: as §1, §2

Escherichia coli SS = test system: Escherichia coli SS
Protocol: as §1, §2

[12] = test system: Staphylococcus aureus CMX 553
Protocol: as §1, §2

[13] = test system: Staphylococcus aureus 1775
Protocol: as §1, §2

Escherichia coli H560 = test system: Escherichia coli H560
Protocol: as §1, §2

[14] = test system: Klebsiella pneumoniae ATCC 8045
Protocol: as §1, §2

[15] = test system: Streptococcus agalactaciae CMX 508
Protocol: as §1, §2

[16] = test system: Enterobacter aerogenes ATCC 13048
Protocol: as §1, §2

[17] = test system: Streptococcus pyrogenes CONST
Protocol: as §1, §2

Escherichia coli JUHL = test system: Escherichia coli JUHL
Protocol: as §1, §2

[18] = test system: Micrococcus luteus ATCC 4698
Protocol: as §1, §2

[19] = test system: Staphylococcus aureus A5177
Protocol: as §1, §2

[20] = test system: Staphylococcus aureus A-5278
Protocol: as §1, §2

[21] = test system: Pseudomonas aeruginosa BMH10
Protocol: as §1, §2

[22] = test system: Pseudomonas aeruginosa 5263
Protocol: as §1, §2

[23] = test system: Staphylococcus aureus ATCC 6538P
Protocol: as §1, §2

[24] = test system: Pseudomonas aeruginosa K799/61
Protocol: as §1, §2

[25] = test system: Streptococcus pyrogenes EES61
Protocol: as §1, §2

Pseudomonas cepacia 296I = test system: Pseudomonas cepacia 296I
Protocol: as §1, §2

Escherichia coli KNK 437 = test system: Escherichia coli KNK 437
Protocol: as §1, §2

[26] = test system: Enterococcus faecium ATCC 8043
Protocol: as §1, §2

| Compound | MIC values [1] | MIC values [2] | MIC values [3] | MIC values [5] | MIC values [6] | MIC values (Escherichia coli DC-2) | MIC values [7] | MIC values [8] | MIC values [9] | MIC values [10] | MIC values [11] | MIC values (Escherichia coli SS) | MIC values [12] | MIC values [13] | MIC values (Escherichia coli H560) | MIC values [14] | MIC values [15] | MIC values [16] | MIC values [17] | MIC values (Escherichia coli JUHL) | also measured |
| --- | --- | --- | --- | --- | --- | --- | --- | --- | --- | --- | --- | --- | --- | --- | --- | --- | --- | --- | --- | --- | --- |
| O=C(O)c1cn(C2CC2)c2cc(N3CCNCC3)c(F)cc2c1=O [Cntl, Ciprofloxacin, reference compound] | 1.56 µg/mL (≈ 4.71 µM) | 0.78 µg/mL (≈ 2.35 µM) | 0.1 µg/mL (≈ 0.302 µM) | 1.56 µg/mL (≈ 4.71 µM) | 0.39 µg/mL (≈ 1.18 µM) | 0.2 µg/mL (≈ 0.604 µM) | 0.39 µg/mL (≈ 1.18 µM) | 0.39 µg/mL (≈ 1.18 µM) | 0.39 µg/mL (≈ 1.18 µM) | 0.39 µg/mL (≈ 1.18 µM) | 0.1 µg/mL (≈ 0.302 µM) | 0.005 µg/mL (≈ 0.0151 µM) | 0.78 µg/mL (≈ 2.35 µM) | > 100 µg/mL | 0.01 µg/mL (≈ 0.0302 µM) | 0.02 µg/mL (≈ 0.0604 µM) | 0.39 µg/mL (≈ 1.18 µM) | 0.05 µg/mL (≈ 0.151 µM) | 0.78 µg/mL (≈ 2.35 µM) | 0.01 µg/mL (≈ 0.0302 µM) | MIC values [4]: 25 µg/mL (≈ 75.4 µM); MIC values [18]: 0.78 µg/mL (≈ 2.35 µM); MIC values [19]: 0.39 µg/mL (≈ 1.18 µM); MIC values [20]: 0.39 µg/mL (≈ 1.18 µM); MIC values [21]: 0.1 µg/mL (≈ 0.302 µM); MIC values [22]: 12.5 µg/mL (≈ 37.7 µM); MIC values [23]: 0.2 µg/mL (≈ 0.604 µM); MIC values [24]: 0.02 µg/mL (≈ 0.0604 µM); MIC values [25]: 0.39 µg/mL (≈ 1.18 µM); MIC values (Pseudomonas cepacia 296I): 3.1 µg/mL (≈ 9.36 µM); MIC values (Escherichia coli KNK 437): 0.2 µg/mL (≈ 0.604 µM); MIC values [26]: 0.39 µg/mL (≈ 1.18 µM) |
| NC1CCN(c2nc3c(C4CC4)cc(C(=O)O)c(=O)n3cc2F)C1 (stereo not drawn) [Example 157, 2-(3-Aminopyrrolidin-1-yl)-9-cyclopropyl-3-fluoro-6H-6-oxo-pyrido[1,2-a]pyrimidine-7-carboxylic acid hydrochloride salt] | – | – | – | 3.1 µg/mL | 0.39 µg/mL | 0.39 µg/mL | – | 0.2 µg/mL | – | 0.2 µg/mL | 0.2 µg/mL | 0.01 µg/mL | 0.39 µg/mL | – | 0.02 µg/mL | – | 1.56 µg/mL | – | 1.56 µg/mL | 0.02 µg/mL | MIC values ([1]; hydrochloride salt): 3.1 µg/mL; MIC values ([2]; hydrochloride salt): 1.56 µg/mL; MIC values ([3]; hydrochloride salt): 0.39 µg/mL; MIC values ([4]; hydrochloride salt): 25 µg/mL; MIC values ([7]; hydrochloride salt): 0.39 µg/mL; MIC values ([9]; hydrochloride salt): 0.39 µg/mL; MIC values ([13]; hydrochloride salt): 25 µg/mL; MIC values ([14]; hydrochloride salt): 0.02 µg/mL; MIC values ([16]; hydrochloride salt): 0.02 µg/mL; MIC values [18]: 1.56 µg/mL; MIC values [19]: 0.39 µg/mL; MIC values ([20]; hydrochloride salt): 0.39 µg/mL; MIC values [21]: 0.2 µg/mL; MIC values [22]: 50 µg/mL; MIC values [23]: 0.2 µg/mL; MIC values [24]: 0.05 µg/mL; MIC values [25]: 1.56 µg/mL; MIC values (Pseudomonas cepacia 296I): 3.1 µg/mL; MIC values (Escherichia coli KNK 437): 0.39 µg/mL; MIC values [26]: 1.56 µg/mL |
| NC1CCN(c2nc3c(C4CC4)cc(C(=O)O)c(=O)n3cc2F)C1 (stereo not drawn) [Example 158, 2-(3-Aminopyrrolidin-1-yl)-9-cyclopropyl-3-fluoro-6H-6-oxo-pyrido[1,2-a]pyrimidine-7-carboxylic acid] | 6.2 µg/mL (≈ 18.7 µM) | 3.1 µg/mL (≈ 9.33 µM) | 0.2 µg/mL (≈ 0.602 µM) | – | 0.39 µg/mL (≈ 1.17 µM) | – | 0.2 µg/mL (≈ 0.602 µM) | – | 0.78 µg/mL (≈ 2.35 µM) | – | – | 0.01 µg/mL (≈ 0.0301 µM) | – | 100 µg/mL (≈ 301 µM) | – | 0.05 µg/mL (≈ 0.15 µM) | – | 0.1 µg/mL (≈ 0.301 µM) | – | 0.02 µg/mL (≈ 0.0602 µM) | MIC values [4]: 50 µg/mL (≈ 150 µM); MIC values [20]: 0.78 µg/mL (≈ 2.35 µM) |
| O=C(O)c1cc(C2CC2)c2nc(N3CCOCC3)c(F)cn2c1=O [Example 165, 9-Cyclopropyl-3-fluoro-2-(morpholin-1-yl)-6H-6-oxo-pyrido[1,2-a]pyrimidine-7-carboxylic acid] | > 100 µg/mL | > 100 µg/mL | 25 µg/mL (≈ 75 µM) | > 100 µg/mL | 6.2 µg/mL (≈ 18.6 µM) | > 100 µg/mL | 6.2 µg/mL (≈ 18.6 µM) | 6.2 µg/mL (≈ 18.6 µM) | > 100 µg/mL | 6.2 µg/mL (≈ 18.6 µM) | 25 µg/mL (≈ 75 µM) | 0.2 µg/mL (≈ 0.6 µM) | 6.2 µg/mL (≈ 18.6 µM) | > 100 µg/mL | 3.1 µg/mL (≈ 9.3 µM) | 0.39 µg/mL (≈ 1.17 µM) | > 100 µg/mL | 3.1 µg/mL (≈ 9.3 µM) | > 100 µg/mL | 3.1 µg/mL (≈ 9.3 µM) | MIC values [18]: > 100 µg/mL; MIC values [19]: 6.2 µg/mL (≈ 18.6 µM); MIC values [20]: 6.2 µg/mL (≈ 18.6 µM); MIC values [21]: 50 µg/mL (≈ 150 µM); MIC values [23]: 6.2 µg/mL (≈ 18.6 µM); MIC values [24]: 3.1 µg/mL (≈ 9.3 µM); MIC values [25]: > 100 µg/mL; MIC values (Pseudomonas cepacia 296I): 25 µg/mL (≈ 75 µM); MIC values (Escherichia coli KNK 437): > 100 µg/mL; MIC values [26]: > 100 µg/mL |
| O=C(O)c1cc(-c2ccc(F)cc2F)c2nc(N3CCC(O)C3)c(F)cn2c1=O (stereo not drawn) [Example 170, 9-(2,4-Difluorophenyl)-3-fluoro-2-(3-hydroxypyrrolidin-1-yl)-6H-6-oxopyrido[1,2-a]pyrimidine-7-carboxylic acid] | 6.2 µg/mL (≈ 15.3 µM) | 6.2 µg/mL (≈ 15.3 µM) | 0.78 µg/mL (≈ 1.92 µM) | 12.5 µg/mL (≈ 30.8 µM) | 0.2 µg/mL (≈ 0.493 µM) | 3.1 µg/mL (≈ 7.65 µM) | 0.1 µg/mL (≈ 0.247 µM) | 0.2 µg/mL (≈ 0.493 µM) | 0.39 µg/mL (≈ 0.962 µM) | 0.05 µg/mL (≈ 0.123 µM) | 0.78 µg/mL (≈ 1.92 µM) | 0.001 µg/mL (≈ 0.00247 µM) | 0.2 µg/mL (≈ 0.493 µM) | 100 µg/mL (≈ 247 µM) | 0.1 µg/mL (≈ 0.247 µM) | 0.05 µg/mL (≈ 0.123 µM) | 0.78 µg/mL (≈ 1.92 µM) | 0.39 µg/mL (≈ 0.962 µM) | 0.78 µg/mL (≈ 1.92 µM) | – | MIC values [4]: > 100 µg/mL; MIC values [18]: 1.56 µg/mL (≈ 3.85 µM); MIC values [19]: 0.1 µg/mL (≈ 0.247 µM); MIC values [20]: 0.1 µg/mL (≈ 0.247 µM); MIC values [21]: 0.78 µg/mL (≈ 1.92 µM); MIC values [22]: > 100 µg/mL; MIC values [23]: 0.05 µg/mL (≈ 0.123 µM); MIC values [24]: 0.05 µg/mL (≈ 0.123 µM); MIC values [25]: 0.78 µg/mL (≈ 1.92 µM); MIC values (Pseudomonas cepacia 296I): 6.2 µg/mL (≈ 15.3 µM); MIC values (Escherichia coli KNK 437): 1.56 µg/mL (≈ 3.85 µM); MIC values [26]: 0.78 µg/mL (≈ 1.92 µM) |
